Values quoted from earlier work, collected in US6629995B1, “Camptothecin conjugates” (priority 2000, dated 2003).

Assays:
[1] = system: human colon cancer xenografts; conditions: mouse, in vivo
[2] = administered intravenously
[3] = system: nontumorigenic and tumorigenic human cells
human tumor xenografts = conditions: nude mice
[4] = system: beta cells of the pancreas; conditions: in vivo

## CC[C@@]1(O)C(=O)OCc2c1cc1n(c2=O)Cc2cc3cc4c(cc3nc2-1)OCO4 [10,11 MD, 10,11-Methylendioxy-20(S)-Camptothecin]
[1]
  anticancer activity against human colon cancer xenografts: high anticancer activity

## CC[C@@](O)(C(=O)[O-])c1cc2n(c(=O)c1CO)Cc1cc3ccccc3nc1-2.[Na+] [CPT Na+, camptothecin sodium salt]
[2]
  potency in clinical trials: low potency
  toxicity in clinical trials: high toxicity

## CC[C@@]1(O)C(=O)OCc2c1cc1n(c2=O)Cc2cc3ccccc3nc2-1 [CPT, 20(S)-camptothecin]
[3]; nontumorigenic human cells in vitro
  effect on nontumorigenic cells: cytostatic
[3]; tumorigenic human cells in vitro
  effect on tumorigenic cells: cytotoxic
other
  solubility in water: insoluble in water

## CC[C@@]1(O)C(=O)OCc2c1cc1n(c2=O)Cc2cc3c(N)cccc3nc2-1 [Example 9AC, 9-Amino-20(S)-Camptothecin]
[1]
  anticancer activity against human colon cancer xenografts: high anticancer activity

## CC[C@@]1(O)C(=O)OCc2c1cc1n(c2=O)Cc2cc3c([N+](=O)[O-])cccc3nc2-1 [Example 9NC, 9-nitrocamptothecin]
Human tumor xenografts
  activity against human tumor xenograft models: high activity

## CN(N=O)C(=O)N[C@@H]1[C@@H](O)[C@H](O)[C@@H](CO)O[C@@H]1O [Streptozoticin]
[4]
  accumulation in tissue: preferentially accumulate in the beta cells of the pancreas
